# Earlier results, collected in patent US20050113271A1, “Automatic dishwashing detergent with improved glass anti-corrosion properties II” (priority 2002, published 2005).
# Where two headings read alike, the source gives them in different places.
compound,measurement,setting,value
[Cl-].[Cl-].[Zn+2] [Zinc chloride],Solubility,25° C.,4320 g/l (25° C.)
Zinc acetylacetonate,Solubility,20° C.,4 g/l (20° C.)
Zinc hydroxycarbonate,Solubility (in words),20° C.,Virtually insoluble (20° C.)
